This is an account of results in the Kinase Knowledgebase extract (Sharma et al. 2016).

The target of one experiment is PIK3CD (Human) (UniProt O00329). In words: Assessment of PIK3CD Kinase Activity.
In another experiment the target is PIK3CG (human) (UniProt P48736). In words: Assessment of PIK3CG Kinase Activity.
The target in the next experiment is PIK3CB (Human) (UniProt P42338). The experiment can be described thus: Assessment of PIK3CB Kinase Activity.
Another experiment has as its target PIK3CA (human) (UniProt P42336). In words: Assessment of PIK3CA Kinase Activity.

PIK3CG (human), sequence (P48736 whole entry, looked up): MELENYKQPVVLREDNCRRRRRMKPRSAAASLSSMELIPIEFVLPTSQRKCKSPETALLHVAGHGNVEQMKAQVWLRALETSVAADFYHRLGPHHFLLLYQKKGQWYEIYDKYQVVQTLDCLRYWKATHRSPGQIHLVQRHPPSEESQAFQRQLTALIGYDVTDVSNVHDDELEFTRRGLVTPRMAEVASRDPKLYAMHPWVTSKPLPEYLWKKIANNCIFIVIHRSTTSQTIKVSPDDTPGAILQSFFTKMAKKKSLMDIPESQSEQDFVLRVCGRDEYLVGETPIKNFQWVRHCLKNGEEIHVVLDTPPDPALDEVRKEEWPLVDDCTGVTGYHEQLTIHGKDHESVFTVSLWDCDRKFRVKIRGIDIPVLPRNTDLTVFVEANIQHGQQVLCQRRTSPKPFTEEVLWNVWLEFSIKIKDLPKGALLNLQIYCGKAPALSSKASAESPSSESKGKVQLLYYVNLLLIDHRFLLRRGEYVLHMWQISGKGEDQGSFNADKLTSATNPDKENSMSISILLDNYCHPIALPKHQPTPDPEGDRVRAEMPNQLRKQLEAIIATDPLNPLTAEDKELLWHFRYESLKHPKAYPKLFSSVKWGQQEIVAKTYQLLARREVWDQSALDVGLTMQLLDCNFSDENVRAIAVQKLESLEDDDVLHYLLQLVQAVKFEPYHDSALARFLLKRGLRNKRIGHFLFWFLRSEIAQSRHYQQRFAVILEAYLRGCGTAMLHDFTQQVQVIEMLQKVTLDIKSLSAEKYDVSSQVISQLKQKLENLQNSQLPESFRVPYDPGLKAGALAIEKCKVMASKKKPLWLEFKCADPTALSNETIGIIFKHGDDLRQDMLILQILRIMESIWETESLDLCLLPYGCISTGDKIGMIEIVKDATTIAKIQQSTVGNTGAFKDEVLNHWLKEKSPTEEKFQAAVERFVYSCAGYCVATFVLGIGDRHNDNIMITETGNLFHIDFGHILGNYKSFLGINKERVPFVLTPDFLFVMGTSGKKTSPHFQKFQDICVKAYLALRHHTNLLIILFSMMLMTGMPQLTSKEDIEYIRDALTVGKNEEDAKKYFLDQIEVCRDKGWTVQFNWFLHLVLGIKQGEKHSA
PIK3CB (Human), sequence (P42338 whole entry, looked up): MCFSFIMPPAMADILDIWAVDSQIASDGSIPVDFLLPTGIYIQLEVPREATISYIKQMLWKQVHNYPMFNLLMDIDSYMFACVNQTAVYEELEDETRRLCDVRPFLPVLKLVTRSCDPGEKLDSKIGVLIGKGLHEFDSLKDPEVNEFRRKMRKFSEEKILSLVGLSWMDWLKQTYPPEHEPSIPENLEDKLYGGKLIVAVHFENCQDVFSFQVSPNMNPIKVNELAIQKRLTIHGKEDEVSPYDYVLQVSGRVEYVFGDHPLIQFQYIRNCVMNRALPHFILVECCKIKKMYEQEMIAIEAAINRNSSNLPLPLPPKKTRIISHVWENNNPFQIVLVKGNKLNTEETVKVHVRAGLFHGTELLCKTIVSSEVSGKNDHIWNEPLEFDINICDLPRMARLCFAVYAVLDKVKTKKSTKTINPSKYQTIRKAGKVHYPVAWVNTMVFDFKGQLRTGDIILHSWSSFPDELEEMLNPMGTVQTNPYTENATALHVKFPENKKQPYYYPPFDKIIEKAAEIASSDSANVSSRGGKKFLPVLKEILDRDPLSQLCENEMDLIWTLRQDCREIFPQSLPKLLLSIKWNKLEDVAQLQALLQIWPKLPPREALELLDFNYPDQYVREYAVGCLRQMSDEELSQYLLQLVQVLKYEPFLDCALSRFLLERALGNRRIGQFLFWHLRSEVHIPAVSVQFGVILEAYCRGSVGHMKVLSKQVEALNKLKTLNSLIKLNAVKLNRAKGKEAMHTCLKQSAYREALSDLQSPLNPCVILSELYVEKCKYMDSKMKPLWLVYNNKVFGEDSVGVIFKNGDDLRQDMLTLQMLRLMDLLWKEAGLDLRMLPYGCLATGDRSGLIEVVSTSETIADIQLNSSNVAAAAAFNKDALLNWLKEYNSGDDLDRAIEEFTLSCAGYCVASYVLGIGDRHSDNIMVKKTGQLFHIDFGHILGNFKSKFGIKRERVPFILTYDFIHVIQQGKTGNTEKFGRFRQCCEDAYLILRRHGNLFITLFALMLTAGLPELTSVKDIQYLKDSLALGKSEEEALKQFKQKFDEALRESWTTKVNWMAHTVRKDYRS
PIK3CD (Human), sequence (O00329 whole entry, looked up): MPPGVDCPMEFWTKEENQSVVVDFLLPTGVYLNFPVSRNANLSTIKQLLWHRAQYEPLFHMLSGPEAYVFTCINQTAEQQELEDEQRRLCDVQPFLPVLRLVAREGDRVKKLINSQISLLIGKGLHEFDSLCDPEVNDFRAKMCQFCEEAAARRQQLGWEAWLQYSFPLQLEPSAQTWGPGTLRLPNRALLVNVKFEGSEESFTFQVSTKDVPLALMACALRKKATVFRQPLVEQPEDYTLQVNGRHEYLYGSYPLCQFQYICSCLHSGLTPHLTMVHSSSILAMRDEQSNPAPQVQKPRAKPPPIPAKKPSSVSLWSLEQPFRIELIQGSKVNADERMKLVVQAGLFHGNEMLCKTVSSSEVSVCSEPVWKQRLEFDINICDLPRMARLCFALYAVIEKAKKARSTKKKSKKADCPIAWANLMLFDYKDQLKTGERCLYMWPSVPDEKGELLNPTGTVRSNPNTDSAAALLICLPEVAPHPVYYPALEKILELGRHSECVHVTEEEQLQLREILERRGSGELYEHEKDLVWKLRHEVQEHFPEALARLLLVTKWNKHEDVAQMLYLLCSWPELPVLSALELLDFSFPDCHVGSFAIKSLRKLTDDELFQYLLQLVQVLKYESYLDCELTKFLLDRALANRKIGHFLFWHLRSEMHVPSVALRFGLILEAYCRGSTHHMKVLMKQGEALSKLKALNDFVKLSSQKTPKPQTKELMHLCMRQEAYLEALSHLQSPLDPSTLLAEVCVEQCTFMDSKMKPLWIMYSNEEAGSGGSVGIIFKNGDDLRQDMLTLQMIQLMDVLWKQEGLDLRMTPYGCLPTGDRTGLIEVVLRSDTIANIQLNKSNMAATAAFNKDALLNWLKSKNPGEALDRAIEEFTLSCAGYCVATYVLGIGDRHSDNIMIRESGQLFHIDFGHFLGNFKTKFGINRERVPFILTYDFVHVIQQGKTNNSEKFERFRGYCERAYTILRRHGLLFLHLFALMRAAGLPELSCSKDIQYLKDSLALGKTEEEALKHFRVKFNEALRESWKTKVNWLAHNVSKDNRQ
PIK3CA (human), sequence (P42336 whole entry, looked up): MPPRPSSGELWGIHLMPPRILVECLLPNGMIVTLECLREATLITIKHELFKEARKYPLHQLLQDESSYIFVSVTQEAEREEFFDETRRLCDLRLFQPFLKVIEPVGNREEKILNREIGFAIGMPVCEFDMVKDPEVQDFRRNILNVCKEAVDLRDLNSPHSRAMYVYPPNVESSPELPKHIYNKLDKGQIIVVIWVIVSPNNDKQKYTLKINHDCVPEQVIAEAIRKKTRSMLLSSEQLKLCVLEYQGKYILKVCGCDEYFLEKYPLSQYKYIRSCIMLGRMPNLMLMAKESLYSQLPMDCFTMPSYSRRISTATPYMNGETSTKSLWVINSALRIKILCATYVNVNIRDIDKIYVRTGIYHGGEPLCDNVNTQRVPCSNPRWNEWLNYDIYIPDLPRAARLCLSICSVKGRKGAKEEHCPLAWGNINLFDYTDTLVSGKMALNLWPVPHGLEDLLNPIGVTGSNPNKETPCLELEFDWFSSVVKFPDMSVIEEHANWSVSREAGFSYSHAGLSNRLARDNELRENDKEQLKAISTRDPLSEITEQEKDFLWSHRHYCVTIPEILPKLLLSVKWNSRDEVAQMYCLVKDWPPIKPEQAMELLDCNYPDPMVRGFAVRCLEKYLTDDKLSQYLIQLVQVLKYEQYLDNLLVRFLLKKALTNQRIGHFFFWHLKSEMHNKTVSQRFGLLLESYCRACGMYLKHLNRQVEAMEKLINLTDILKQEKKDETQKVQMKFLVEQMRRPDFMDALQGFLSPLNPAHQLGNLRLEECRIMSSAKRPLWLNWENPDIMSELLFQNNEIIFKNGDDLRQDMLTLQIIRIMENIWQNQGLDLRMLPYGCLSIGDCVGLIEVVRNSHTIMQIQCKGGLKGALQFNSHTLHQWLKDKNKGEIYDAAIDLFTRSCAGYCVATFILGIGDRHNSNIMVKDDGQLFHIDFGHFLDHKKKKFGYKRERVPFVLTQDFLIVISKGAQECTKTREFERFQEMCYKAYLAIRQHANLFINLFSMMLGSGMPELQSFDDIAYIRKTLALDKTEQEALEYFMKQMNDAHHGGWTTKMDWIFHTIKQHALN

Regarding `COc1ccc(NCc2cc3nc(-c4cccc5[nH]ncc45)nc(N4CCOCC4)c3s2)cn1`, the IC50 was greater than 100 nM against PIK3CD (Human), less than 100 nM on PIK3CG (human), greater than 100 nM on PIK3CB (Human) and less than 1000 nM on PIK3CA (human).
For `CC(C)(O)c1cc2nc(-c3cccc4[nH]ncc34)nc(N3CCOCC3)c2s1`, the concentration for half-maximal inhibition (IC50) on PIK3CD (Human) is greater than 100 nM; against PIK3CG (human), less than 100 nM; at PIK3CB (Human), less than 100 nM; on PIK3CA (human) it was less than 1000 nM.
In the case of `O=C(O)c1cccc(-c2cc3nc(-c4cccc5[nH]ncc45)nc(N4CCOCC4)c3s2)c1`, the IC50 against PIK3CD (Human) was greater than 100 nM; at PIK3CG (human), less than 100 nM; against PIK3CB (Human) it was less than 100 nM; against PIK3CA (human) it was less than 1000 nM.
As to `CC(=O)Nc1cccc(-c2cc3nc(-c4cccc5[nH]ncc45)nc(N4CCOCC4)c3s2)c1`, the IC50 at PIK3CD (Human) was greater than 100 nM; at PIK3CG (human), less than 100 nM; against PIK3CB (Human), less than 100 nM; against PIK3CA (human), less than 1000 nM.
In the case of `c1ccc(-c2cc3nc(-c4cccc5[nH]ncc45)nc(N4CCOCC4)c3o2)cc1`, the IC50 was greater than 100 nM against PIK3CD (Human), greater than 100 nM against PIK3CG (human), less than 100 nM on PIK3CB (Human) and less than 1000 nM against PIK3CA (human).
With `O=C(NCCN1CCCCC1)c1cc2nc(-c3cccc4[nH]ncc34)nc(N3CCOCC3)c2s1`, the IC50 was greater than 100 nM against PIK3CD (Human), less than 100 nM on PIK3CG (human), greater than 100 nM at PIK3CB (Human) and less than 1000 nM at PIK3CA (human).
Regarding `CC(C)(O)c1cc2nc(-c3cnc4[nH]ccc4c3)nc(N3CCOCC3)c2s1`, the IC50 against PIK3CD (Human) was greater than 100 nM; on PIK3CG (human) it was less than 100 nM; against PIK3CB (Human) it was less than 100 nM; at PIK3CA (human) it was less than 1000 nM.
`O=S(=O)(Nc1cccc(O)c1)c1cc2nc(-c3cccc4[nH]ncc34)nc(N3CCOCC3)c2s1`: the IC50 is greater than 100 nM against PIK3CD (Human), less than 100 nM at PIK3CG (human), less than 100 nM at PIK3CB (Human) and less than 1000 nM against PIK3CA (human).
As to `CN(C)Cc1cc2nc(-c3cccc4[nH]ncc34)nc(N3CCOCC3)c2s1`, the IC50 against PIK3CD (Human) is greater than 100 nM; at PIK3CG (human), less than 100 nM; against PIK3CB (Human) it was less than 100 nM; against PIK3CA (human), less than 1000 nM.
As to `NCC(=O)Nc1cccc(-c2cc3nc(-c4cccc5[nH]ncc45)nc(N4CCOCC4)c3s2)c1`, the concentration for half-maximal inhibition (IC50) against PIK3CD (Human) was greater than 100 nM; against PIK3CG (human) it was greater than 100 nM; against PIK3CB (Human), less than 100 nM; against PIK3CA (human), less than 1000 nM.
Consider `O=C(NOCC1CC1)c1cc2nc(-c3cccc4[nH]ncc34)nc(N3CCOCC3)c2s1`, for which the 50% inhibitory concentration (IC50) was greater than 100 nM against PIK3CD (Human), less than 100 nM at PIK3CG (human), greater than 100 nM on PIK3CB (Human) and less than 1000 nM at PIK3CA (human).
`Cc1c(-c2cccc(S(C)(=O)=O)c2)sc2c(N3CCOCC3)nc(-c3cccc4[nH]ncc34)nc12`: the IC50 at PIK3CD (Human) is less than 100 nM; at PIK3CG (human), less than 100 nM; at PIK3CB (Human), less than 100 nM; on PIK3CA (human) it was less than 1000 nM.
For the compound `CS(=O)(=O)N1CCC(C(O)c2cc3nc(-c4cccc5[nH]ncc45)nc(N4CCOCC4)c3s2)CC1` (centres undefined), the half-maximal inhibitory concentration (IC50) was greater than 100 nM on PIK3CD (Human), less than 100 nM on PIK3CG (human), greater than 100 nM on PIK3CB (Human) and less than 1000 nM on PIK3CA (human).
On to `CC(C)(O)c1cc2nc(-c3cccc4[nH]ccc34)nc(N3CCOCC3)c2s1`, for which the IC50 on PIK3CD (Human) was greater than 100 nM; at PIK3CG (human), less than 100 nM; against PIK3CB (Human), less than 100 nM; at PIK3CA (human), less than 1000 nM.
For the compound `C[C@H](O)CNCc1cc2nc(-c3cccc4[nH]ncc34)nc(N3CCOCC3)c2s1`, the IC50 was greater than 100 nM on PIK3CD (Human), less than 100 nM against PIK3CG (human), greater than 100 nM against PIK3CB (Human) and less than 1000 nM against PIK3CA (human).
Consider `OCc1cccc(-c2cc3nc(-c4cccc5[nH]ncc45)nc(N4CCOCC4)c3s2)c1`, for which the IC50 against PIK3CD (Human) was greater than 100 nM; against PIK3CG (human), less than 100 nM; against PIK3CB (Human), less than 100 nM; against PIK3CA (human) it was less than 1000 nM.
For `CN(Cc1cc2nc(-c3cccc4[nH]ncc34)nc(N3CCOCC3)c2s1)C(=O)c1ccccc1`, the concentration for half-maximal inhibition (IC50) against PIK3CD (Human) is greater than 100 nM; against PIK3CG (human), greater than 100 nM; on PIK3CB (Human) it was greater than 100 nM; on PIK3CA (human), less than 1000 nM.
Turning to `CCNC(=O)c1cc2nc(-c3cccc4[nH]ncc34)nc(N3CCOCC3)c2s1`, the half-inhibitory concentration (IC50) at PIK3CD (Human) was greater than 100 nM; at PIK3CG (human), greater than 100 nM; on PIK3CB (Human), greater than 100 nM; at PIK3CA (human) it was less than 1000 nM.
Regarding `c1cc2cc(-c3nc(N4CCOCC4)c4sc(-c5ccc(N6CCOCC6)nc5)cc4n3)cnc2[nH]1`, the IC50 is less than 100 nM against PIK3CD (Human), less than 100 nM against PIK3CG (human), less than 100 nM against PIK3CB (Human) and less than 1000 nM against PIK3CA (human).
As for `CS(=O)(=O)c1cccc(-c2cc3nc(-c4cnc5[nH]ccc5c4)nc(N4CCOCC4)c3s2)c1`, the IC50 on PIK3CD (Human) is less than 100 nM; on PIK3CG (human), less than 100 nM; against PIK3CB (Human), less than 100 nM; against PIK3CA (human), less than 1000 nM.
For the compound `CS(=O)(=O)c1cccc(C(=O)NCc2cc3nc(-c4cccc5[nH]ncc45)nc(N4CCOCC4)c3s2)c1`, the concentration for half-maximal inhibition (IC50) was greater than 100 nM against PIK3CD (Human), less than 100 nM on PIK3CG (human), less than 100 nM against PIK3CB (Human) and less than 1000 nM on PIK3CA (human).
As for `CN(Cc1cc2c(N3CCOCC3)nc(-c3cnc4[nH]ccc4c3)nc2s1)S(C)(=O)=O`, the IC50 at PIK3CD (Human) was less than 100 nM; at PIK3CG (human), less than 100 nM; at PIK3CB (Human), less than 100 nM; against PIK3CA (human) it was less than 1000 nM.
In the case of `Nc1nc(-c2cc3nc(-c4cnc5[nH]ccc5c4)nc(N4CCOCC4)c3s2)cs1`, the IC50 is less than 100 nM against PIK3CD (Human), less than 100 nM on PIK3CG (human), less than 100 nM against PIK3CB (Human) and less than 1000 nM against PIK3CA (human).
As to `O=S(=O)(NCCN1CCCCC1)c1cc2nc(-c3cccc4[nH]ncc34)nc(N3CCOCC3)c2s1`, the IC50 against PIK3CD (Human) is greater than 100 nM; at PIK3CG (human), less than 100 nM; against PIK3CB (Human), less than 100 nM; against PIK3CA (human), less than 1000 nM.
On to `CS(=O)(=O)c1cccc(-c2cc3nc(-c4cccc5[nH]ncc45)nc(N4CCOCC4)c3s2)c1`, for which the concentration for half-maximal inhibition (IC50) against PIK3CD (Human) was greater than 100 nM; against PIK3CG (human), less than 100 nM; against PIK3CB (Human), less than 100 nM; at PIK3CA (human), less than 1000 nM.
`C[C@H](O)CNC(=O)c1cccc(-c2cc3nc(-c4cccc5[nH]ncc45)nc(N4CCOCC4)c3s2)c1`: the half-maximal inhibitory concentration (IC50) against PIK3CD (Human) was greater than 100 nM; at PIK3CG (human), less than 100 nM; on PIK3CB (Human), less than 100 nM; against PIK3CA (human), less than 1000 nM.
Turning to `COC/C=C/c1cc2nc(-c3cccc4[nH]ncc34)nc(N3CCOCC3)c2s1`, the 50% inhibitory concentration (IC50) was greater than 100 nM against PIK3CD (Human), less than 100 nM against PIK3CG (human), less than 100 nM on PIK3CB (Human) and less than 1000 nM against PIK3CA (human).
With `CNC(=O)c1cccc(-c2cc3nc(-c4cccc5[nH]ncc45)nc(N4CCOCC4)c3s2)c1`, the half-maximal inhibitory concentration (IC50) on PIK3CD (Human) is greater than 100 nM; against PIK3CG (human) it was less than 100 nM; at PIK3CB (Human), less than 100 nM; on PIK3CA (human) it was less than 1000 nM.
With `CN(C)C(=O)c1cc2nc(-c3cccc4[nH]ncc34)nc(N3CCOCC3)c2s1`, the half-inhibitory concentration (IC50) against PIK3CD (Human) is greater than 100 nM; against PIK3CG (human), less than 100 nM; at PIK3CB (Human) it was greater than 100 nM; against PIK3CA (human), less than 1000 nM.
In the case of `Cc1c(-c2cccc(S(C)(=O)=O)c2)sc2c(N3CCOCC3)nc(-c3cnc4[nH]ccc4c3)nc12`, the IC50 is less than 100 nM at PIK3CD (Human), less than 100 nM at PIK3CG (human), less than 100 nM on PIK3CB (Human) and less than 1000 nM at PIK3CA (human).
For `O=C(NCc1cc2nc(-c3cccc4[nH]ncc34)nc(N3CCOCC3)c2s1)N1CCOCC1`, the IC50 against PIK3CD (Human) is greater than 100 nM; on PIK3CG (human) it was less than 100 nM; at PIK3CB (Human) it was greater than 100 nM; against PIK3CA (human) it was less than 1000 nM.
With `c1cc(-c2nc(N3CCOCC3)c3sc(Cn4ccnc4)cc3n2)c2cn[nH]c2c1`, the concentration for half-maximal inhibition (IC50) against PIK3CD (Human) is greater than 100 nM; on PIK3CG (human), less than 100 nM; against PIK3CB (Human) it was greater than 100 nM; against PIK3CA (human) it was less than 1000 nM.
Regarding `c1cc(-c2nc(N3CCOCC3)c3sc(-c4cn[nH]c4)cc3n2)c2cn[nH]c2c1`, the concentration for half-maximal inhibition (IC50) on PIK3CD (Human) was greater than 100 nM; against PIK3CG (human), less than 100 nM; at PIK3CB (Human), greater than 100 nM; against PIK3CA (human) it was less than 1000 nM.
In the case of `CC(C)(NC(=O)c1ccccc1)c1cc2nc(-c3cccc4[nH]ncc34)nc(N3CCOCC3)c2s1`, the IC50 is greater than 100 nM against PIK3CD (Human), less than 100 nM at PIK3CG (human), less than 100 nM at PIK3CB (Human) and less than 1000 nM against PIK3CA (human).
For the compound `OCCNc1cc2nc(-c3cccc4[nH]ncc34)nc(N3CCOCC3)c2s1`, the half-maximal inhibitory concentration (IC50) against PIK3CD (Human) was greater than 100 nM; against PIK3CG (human), less than 100 nM; on PIK3CB (Human) it was greater than 100 nM; on PIK3CA (human), less than 1000 nM.
`OC1(c2cc3nc(-c4cccc5[nH]ncc45)nc(N4CCOCC4)c3s2)CCC1`: the half-inhibitory concentration (IC50) on PIK3CD (Human) was greater than 100 nM; on PIK3CG (human) it was less than 100 nM; at PIK3CB (Human), greater than 100 nM; against PIK3CA (human), less than 1000 nM.
